Data from PubChem BioAssay (NCI).
Where “and” joins values, the source holds several entries; their conditions need not be identical. Equal values may be shown once.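 Growth conditions: 96-well plates. Treatment: test compound, 48 hours, 5 concentrations. Analysis: linear interpolation between bracketing concentrations; unreached endpoints set to highest concentration. Here, GI50 denotes the concentration required for 50% inhibition of growth. Definition used: TGI = concentration required for complete inhibition of growth.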

Tests used:
Experiment in all cases: NCI tumour cell line growth inhibition, 48 h
OVCAR-3 ovarian = tested on: OVCAR-3 ovarian
NCI-H23 lung = tested on: NCI-H23 lung
HT29 colon = tested on: HT29 colon
M14 melanoma = tested on: M14 melanoma
SK-MEL-28 melanoma = tested on: SK-MEL-28 melanoma
UO-31 renal = tested on: UO-31 renal
HCT-116 colon = tested on: HCT-116 colon
KM12 colon = tested on: KM12 colon
SK-MEL-5 melanoma = tested on: SK-MEL-5 melanoma
LOX IMVI melanoma = tested on: LOX IMVI melanoma

Row | Structure (SMILES) | TGI (OVCAR-3 ovarian) | TGI (NCI-H23 lung) | TGI (HT29 colon) | TGI (M14 melanoma) | TGI (SK-MEL-28 melanoma) | TGI (UO-31 renal) | TGI (HCT-116 colon) | TGI (KM12 colon) | TGI (SK-MEL-5 melanoma) | TGI (LOX IMVI melanoma) | GI50 (OVCAR-3 ovarian) | GI50 (NCI-H23 lung) | GI50 (HT29 colon) | GI50 (M14 melanoma) | GI50 (SK-MEL-28 melanoma) | GI50 (UO-31 renal) | GI50 (HCT-116 colon) | GI50 (KM12 colon) | GI50 (SK-MEL-5 melanoma) | GI50 (LOX IMVI melanoma)
1 | Cc1ccc(S(=O)(=O)N2CCN(C=S)CC2)cc1 | > 100 µM | > 100 µM | > 100 µM | > 100 µM | > 100 µM | > 100 µM | > 100 µM | > 100 µM | > 100 µM | > 100 µM | – | – | – | – | – | – | – | – | – | –
2 | COc1c(/C=C/C=O)cc2c(c1OC)OCO2 | > 100 µM | > 100 µM | 69.5 µM | 56.2 µM | > 100 µM | > 100 µM | > 100 µM | 29.4 µM | 50.3 µM | 76 µM | – | – | – | – | – | – | – | – | – | –
3 | N/N=C(\c1nc2ccc([N+](=O)[O-])cc2[nH]c1=O)C(O)c1ccc(Cl)c(Cl)c1 (stereo not given) | > 100 µM | > 100 µM | > 100 µM | > 100 µM | > 100 µM | > 100 µM | > 100 µM | > 100 µM | > 100 µM | > 100 µM | – | – | – | – | – | – | – | – | – | –
4 | O=C1CC(c2ccccc2)Cc2nc3ccc(Br)cc3cc21 (stereo not given) | 1.14 µM | > 100 µM | > 100 µM | 12.4 µM | > 100 µM | > 100 µM | > 100 µM | > 37.7 µM | 2.22 µM | > 59.8 µM | 0.304 µM | 0.575 µM | 0.244 µM | 0.0486 µM | 1.34 µM | 0.689 µM | 0.0509 µM | 0.368 µM | 0.342 µM | 0.746 µM
5 | CC(C)[C@@](O)(c1ccc2cc(OC(F)F)c(OC(F)F)cc2c1)c1cn[nH]n1 | 37.1 µM | 32.2 µM | 41.6 µM | 33.4 µM | 33.9 µM | 26.4 µM | 32 µM | 39.2 µM | 27.5 µM | 29.2 µM | 16.3 µM | 14.3 µM | 18.6 µM | 16 µM | 17.1 µM | 11.6 µM | 17.2 µM | 17.5 µM | 14.4 µM | 15.8 µM
6 | O=Nc1c(-c2c(O)[nH]c3cc(Br)ccc23)[nH]c2ccccc12 | 2.24 µM | 4.28 µM | 3.44 µM | 3.48 µM | 4.79 µM | 2.03 µM | 2.27 µM | 1.94 µM | 1.99 µM | 2.55 µM | 0.648 µM | 1.63 µM | 1.67 µM | 1.76 µM | 2.37 µM | 0.334 µM | 0.883 µM | 0.471 µM | 0.723 µM | 1.1 µM
7 | CCCCNS(=O)(=O)c1n[nH]c(=O)[nH]c1=O | > 100 µM | > 100 µM | > 100 µM | > 100 µM | > 100 µM | > 100 µM | > 100 µM | > 100 µM | > 100 µM | > 100 µM | – | – | – | – | – | – | – | – | – | –
8 | COc1cc(/C=C2\CCC/C(=C\c3ccc(O)c(OC)c3)C2=O)ccc1O | 10.8 µM and 3.39 µM | 24.8 µM and 4.63 µM | 18.8 µM and 5.68 µM | 6.79 µM and 5.61 µM | 16.4 µM and 4.05 µM | 4.82 µM and 2.83 µM | 5 µM and 2.75 µM | 5.83 µM and 2.62 µM | 6.82 µM and 3.09 µM | 3.49 µM and 2.83 µM | 1.56 µM | 1.84 µM | 2.31 µM | 1.92 µM | 1.68 µM | 1.17 µM | 1.45 µM | 1.25 µM | 1.54 µM | 1.46 µM
9 | O=c1cnnc(N/N=C/c2ccccc2O)[nH]1 | > 100 µM | > 100 µM | > 100 µM | 19.2 µM | 53.2 µM | 13.5 µM | > 100 µM | > 100 µM | > 39.6 µM | > 48.2 µM | 0.324 µM | 1.21 µM | 0.646 µM | 0.449 µM | 4.54 µM | 1.61 µM | 0.0337 µM | 2.85 µM | 1.25 µM | 1.07 µM
10 | O=C(C=P(c1ccccc1)(c1ccccc1)c1ccccc1)CCl | 2.68 µM | 4.83 µM | 2.8 µM | 3.89 µM | 3.55 µM | 2.38 µM | 1.6 µM | 5.09 µM | 2.83 µM | 1.04 µM | 1.33 µM | 0.811 µM | 1.13 µM | 1.36 µM | 1.54 µM | 1.04 µM | 0.416 µM | 1.94 µM | 1.45 µM | 0.353 µM
11 | O=c1c2ccccc2c(/C=N\NC2=NCCN2)c2oc3ccccc3n12 | 34.3 µM | 37.6 µM | > 100 µM | > 100 µM | 49 µM | 70.9 µM | > 100 µM | 34.4 µM | 41.7 µM | 31.3 µM | 18.6 µM | 15.7 µM | 20.7 µM | 34.4 µM | 20.7 µM | 18.8 µM | 19.1 µM | 16.7 µM | 21.3 µM | 13.2 µM
12 | COC(=O)[C@]12CC[C@@H](C)[C@H](C)[C@@H]1C1=CC[C@@H]3[C@@]4(C)C[C@@H](OC(=O)/C=C/c5ccccc5)[C@H](O)[C@@](C)(CO)[C@@H]4[C@H](O)C[C@@]3(C)[C@]1(C)CC2 | 4.53 µM | 10.2 µM | 3.81 µM | 8.58 µM | 9.36 µM | 11.2 µM | 3.79 µM | 5.36 µM | 4.23 µM | 3.1 µM | 1.98 µM | 2.8 µM | 1.8 µM | 2.65 µM | 2.69 µM | 2.56 µM | 1.95 µM | 2.05 µM | 1.93 µM | 1.69 µM
13 | CCC1C(C(=O)Nc2ccccc2C)=C(C)NC(C)=C1c1ccccc1C (stereo not given) | > 100 µM | > 100 µM | > 100 µM | > 100 µM | > 100 µM | > 100 µM | > 77.6 µM | > 100 µM | > 100 µM | > 100 µM | – | – | – | – | – | – | – | – | – | –
14 | Cc1ccc(NC(=O)CC/C(CC(=O)C(C)(C)C)=N\NC(=O)C[n+]2ccccc2)cc1C | > 100 µM | > 100 µM | > 100 µM | > 100 µM | > 100 µM | > 100 µM | > 100 µM | > 100 µM | > 100 µM | > 100 µM | – | – | – | – | – | – | – | – | – | –
